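GI50: concentration for 50% inhibition of growth. TGI: concentration producing complete growth inhibition.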
Tests used:
Assay in all cases: DTP human tumour cell line panel, 384-well format
MDA-MB-468 breast = test system: MDA-MB-468 breast
PC-3 prostate = test system: PC-3 prostate
A498 renal = test system: A498 renal
IGROV1 ovarian = test system: IGROV1 ovarian
786-0 renal = test system: 786-0 renal
OVCAR-5 ovarian = test system: OVCAR-5 ovarian
UACC-62 melanoma = test system: UACC-62 melanoma
CAKI-1 renal = test system: CAKI-1 renal
MDA-MB-435 melanoma = test system: MDA-MB-435 melanoma
HL-60(TB) leukemia = test system: HL-60(TB) leukemia
KM12 colon = test system: KM12 colon
SW-620 colon = test system: SW-620 colon
SF-295 CNS = test system: SF-295 CNS
M14 melanoma = test system: M14 melanoma
DU-145 prostate = test system: DU-145 prostate
HS 578T breast = test system: HS 578T breast
MCF7 breast = test system: MCF7 breast
ACHN renal = test system: ACHN renal
SNB-75 CNS = test system: SNB-75 CNS
SN12C renal = test system: SN12C renal
OVCAR-8 ovarian = test system: OVCAR-8 ovarian
HT29 colon = test system: HT29 colon
RPMI-8226 leukemia = test system: RPMI-8226 leukemia
UO-31 renal = test system: UO-31 renal
NCI/ADR-RES ovarian = test system: NCI/ADR-RES ovarian
NCI-H322M lung = test system: NCI-H322M lung
A549 NSCLC = test system: A549 NSCLC
CCRF-CEM leukemia = test system: CCRF-CEM leukemia
LOX IMVI melanoma = test system: LOX IMVI melanoma
K-562 leukemia = test system: K-562 leukemia
HOP-92 NSCLC = test system: HOP-92 NSCLC
HCC-2998 colon = test system: HCC-2998 colon
NCI-H23 lung = test system: NCI-H23 lung
MOLT-4 leukemia = test system: MOLT-4 leukemia
RXF 393 renal = test system: RXF 393 renal
HCT-116 colon = test system: HCT-116 colon
HOP-62 NSCLC = test system: HOP-62 NSCLC
T-47D breast = test system: T-47D breast
SK-MEL-28 melanoma = test system: SK-MEL-28 melanoma
OVCAR-4 ovarian = test system: OVCAR-4 ovarian
SF-268 CNS = test system: SF-268 CNS
SF-539 CNS = test system: SF-539 CNS
HCT-15 colon = test system: HCT-15 colon
NCI-H226 lung = test system: NCI-H226 lung
SK-OV-3 ovarian = test system: SK-OV-3 ovarian
SNB-19 CNS = test system: SNB-19 CNS
TK-10 renal = test system: TK-10 renal
COLO 205 colon = test system: COLO 205 colon
OVCAR-3 ovarian = test system: OVCAR-3 ovarian
U251 glioblastoma = test system: U251 glioblastoma
NCI-H460 NSCLC = test system: NCI-H460 NSCLC
MDA-MB-231 breast = test system: MDA-MB-231 breast
BT-549 breast = test system: BT-549 breast
UACC-257 melanoma = test system: UACC-257 melanoma
MALME-3M melanoma = test system: MALME-3M melanoma
NCI-H522 lung = test system: NCI-H522 lung
SK-MEL-5 melanoma = test system: SK-MEL-5 melanoma
EKVX NSCLC = test system: EKVX NSCLC

## O=C(Oc1ccc([N+](=O)[O-])cc1)N1CCC(C(O)(c2ccc3c(c2)OCO3)c2ccc3c(c2)OCO3)CC1
MDA-MB-468 breast
  GI50: 32.6 µM
  TGI: > 100 µM
PC-3 prostate
  GI50: > 100 µM
  TGI: > 100 µM
A498 renal
  GI50: > 100 µM
  TGI: > 100 µM
IGROV1 ovarian
  GI50: > 100 µM
  TGI: > 100 µM
786-0 renal
  GI50: > 100 µM
  TGI: > 100 µM
OVCAR-5 ovarian
  GI50: > 100 µM
  TGI: > 100 µM
UACC-62 melanoma
  GI50: > 100 µM
  TGI: > 100 µM
CAKI-1 renal
  GI50: > 100 µM
  TGI: > 100 µM
MDA-MB-435 melanoma
  GI50: > 100 µM
  TGI: > 100 µM
HL-60(TB) leukemia
  GI50: > 100 µM
  TGI: > 100 µM
KM12 colon
  GI50: > 100 µM
  TGI: > 100 µM
SW-620 colon
  GI50: > 100 µM
  TGI: > 100 µM
SF-295 CNS
  GI50: > 100 µM
  TGI: > 100 µM
M14 melanoma
  GI50: > 100 µM
  TGI: > 100 µM
DU-145 prostate
  GI50: > 100 µM
  TGI: > 100 µM
HS 578T breast
  GI50: 24.5 µM
  TGI: > 100 µM
MCF7 breast
  GI50: > 100 µM
  TGI: > 100 µM
ACHN renal
  GI50: > 100 µM
  TGI: > 100 µM
SNB-75 CNS
  GI50: 24.6 µM
  TGI: > 100 µM
SN12C renal
  GI50: > 100 µM
  TGI: > 100 µM
OVCAR-8 ovarian
  GI50: > 100 µM
  TGI: > 100 µM
HT29 colon
  GI50: > 100 µM
  TGI: > 100 µM
RPMI-8226 leukemia
  GI50: > 100 µM
  TGI: > 100 µM
UO-31 renal
  GI50: > 100 µM
  TGI: > 100 µM
NCI/ADR-RES ovarian
  GI50: > 100 µM
  TGI: > 100 µM
NCI-H322M lung
  GI50: > 100 µM
  TGI: > 100 µM
A549 NSCLC
  GI50: > 100 µM
  TGI: > 100 µM
CCRF-CEM leukemia
  GI50: > 100 µM
  TGI: > 100 µM
LOX IMVI melanoma
  GI50: > 100 µM
  TGI: > 100 µM
K-562 leukemia
  GI50: > 100 µM
  TGI: > 100 µM
HOP-92 NSCLC
  GI50: 44.5 µM
  TGI: > 100 µM
HCC-2998 colon
  GI50: 18.2 µM
  TGI: > 100 µM
NCI-H23 lung
  GI50: > 100 µM
  TGI: > 100 µM
MOLT-4 leukemia
  GI50: > 100 µM
  TGI: > 100 µM
RXF 393 renal
  GI50: 98.7 µM
  TGI: > 100 µM
HCT-116 colon
  GI50: > 100 µM
  TGI: > 100 µM
HOP-62 NSCLC
  GI50: > 100 µM
  TGI: > 100 µM
T-47D breast
  GI50: 2.93 µM
  TGI: > 100 µM
SK-MEL-28 melanoma
  GI50: > 100 µM
  TGI: > 100 µM
OVCAR-4 ovarian
  GI50: > 100 µM
  TGI: > 100 µM
SF-268 CNS
  GI50: 11.1 µM
  TGI: > 100 µM
SF-539 CNS
  GI50: > 100 µM
  TGI: > 100 µM
HCT-15 colon
  GI50: > 100 µM
  TGI: > 100 µM
NCI-H226 lung
  GI50: > 100 µM
  TGI: > 100 µM
SK-OV-3 ovarian
  GI50: > 100 µM
  TGI: > 100 µM
SNB-19 CNS
  GI50: > 100 µM
  TGI: > 100 µM
TK-10 renal
  GI50: > 100 µM
  TGI: > 100 µM
COLO 205 colon
  GI50: > 100 µM
  TGI: > 100 µM
OVCAR-3 ovarian
  GI50: > 100 µM
  TGI: > 100 µM
U251 glioblastoma
  GI50: > 100 µM
  TGI: > 100 µM
NCI-H460 NSCLC
  GI50: > 100 µM
  TGI: > 100 µM
MDA-MB-231 breast
  GI50: > 100 µM
  TGI: > 100 µM
BT-549 breast
  GI50: 53.1 µM
  TGI: > 100 µM
UACC-257 melanoma
  GI50: > 100 µM
  TGI: > 100 µM
MALME-3M melanoma
  GI50: > 100 µM
  TGI: > 100 µM
NCI-H522 lung
  GI50: > 100 µM
  TGI: > 100 µM
SK-MEL-5 melanoma
  GI50: > 100 µM
  TGI: > 100 µM
EKVX NSCLC
  GI50: > 100 µM
  TGI: > 100 µM

Reference: PubChem BioAssay (NCI)
